Holding throughout (format): functional
Assay [1] relates to Staphylococcus aureus. As to the kind of experiment: Antimicrobial activity against Staphylococcus aureus at 100 ppm after 48 hr by agar well diffusion method. Particulars: read-out: IZ.
Assay [2] is described as follows: Antioxidant activity assessed as inhibition of NBT reduction at 100 ug/ml.
Assay [3] has as its system Escherichia coli. The assay is described as follows: Antimicrobial activity against Escherichia coli at 100 ppm after 48 hr by agar well diffusion method. Particulars: read-out: IZ. (Agar diffusion results depend on both activity and mobility in agar.)
The nature of assay [4]: Antioxidant activity assessed as inhibition of NBT reduction at 80 ug/ml.
The nature of assay [5]: Antioxidant activity assessed as inhibition of NBT reduction at 40 ug/ml.
Assay [6] is described as follows: Antioxidant activity assessed as inhibition of NBT reduction at 60 ug/ml.
Assay [7] can be described thus: Antioxidant activity assessed as inhibition of NBT reduction at 20 ug/ml.
Assay [8] concerns Talaromyces marneffei. The assay is described as follows: Antimicrobial activity against Talaromyces marneffei at 100 ppm after 48 hr by agar well diffusion method. The conditions noted are these: read-out: IZ.
The test system of assay [9] is Aspergillus niger. As to the kind of experiment: Antimicrobial activity against Aspergillus niger at 100 ppm after 48 hr by agar well diffusion method. The conditions noted are these: read-out: IZ.
Assay [10] deals with Talaromyces marneffei. The assay is described as follows: Antimicrobial activity against Talaromyces marneffei at 100 ug/ml after 48 hr by agar well diffusion method. Particulars: read-out: IZ.
The subject of assay [11] is Aspergillus niger. As to the kind of experiment: Antimicrobial activity against Aspergillus niger at 100 ug/ml after 48 hr by agar well diffusion method. The conditions noted are these: read-out: IZ.
Assay [12] relates to Staphylococcus aureus. The assay is described as follows: Antimicrobial activity against Staphylococcus aureus at 100 ug/ml after 48 hr by agar well diffusion method. Particulars: read-out: IZ.
For assay [13], the system named is Escherichia coli. As to the kind of experiment: Antimicrobial activity against Escherichia coli at 100 ug/ml after 48 hr by agar well diffusion method. The conditions noted are these: read-out: IZ.

`COc1cc(OC)c(-c2cc(-c3cc(C(C)C)c(O)cc3C)[nH]c(=O)c2C#N)c(OC)c1`: the zone of inhibition at 100 ppm in assay [1] stood at 11 mm; in assay [3], 10 mm. The inhibition (usually the relative decrease from the control value, in per cent) is 82.5% in assay [2]; 79% in assay [4]; 52.6% in [5]; 66% in [6]; 32% in [7].

As to `Cc1cc(O)c(C(C)C)cc1-c1cc(-c2ccccc2Cl)c(C#N)c(=O)[nH]1`, the zone of inhibition at 100 ppm in assay [8] was found to be 12 mm; in assay [9] it was 11 mm; in assay [1], 14 mm; in assay [3], 15 mm. Further, the inhibition in assay [2] stood at 34%; in assay [4], 32%; in assay [5] it was 20%; in assay [6], 26%; in [7], 12%.

Regarding `COc1cc(-c2cc(-c3cc(C(C)C)c(O)cc3C)[nH]c(=O)c2C#N)cc(OC)c1OC`, the zone of inhibition at 100 ppm in assay [1] stood at 10 mm; in assay [3], 11 mm. Moreover, the inhibition in assay [2] was determined as 84.5%; in [4], 82%; in [5], 55%; in assay [6], 71%; in assay [7], 35%.

As to `COc1ccc(-c2cc(-c3cc(C(C)C)c(O)cc3C)[nH]c(=O)c2C#N)cc1`, the zone of inhibition at 100 ppm in [8] came to 10 mm; in assay [9], 10 mm; in assay [1] it was 13 mm; in [3], 14 mm. Moreover, the inhibition is 54% in [2]; 47.5% in assay [4]; 35% in assay [5]; 43% in assay [6]; 24% in [7].

In the case of `Cc1cc(O)c(C(C)C)cc1-c1cc(-c2ccc(N(C)C)cc2)c(C#N)c(=O)[nH]1`, the zone of inhibition at 100 ppm in [8] was 13 mm; in [9], 14 mm; in [1], 14 mm; in assay [3], 14 mm. In addition, the inhibition in assay [2] was determined as 68%; in assay [4], 66.5%; in [5], 43%; in assay [6], 53%; in [7] it was 30%.

Take `COc1cccc(-c2cc(-c3cc(C(C)C)c(O)cc3C)[nH]c(=O)c2C#N)c1`: the zone of inhibition at 100 ppm in assay [8] was 11 mm; in assay [9] it was 11 mm; in assay [1] it was 13 mm; in assay [3], 14 mm. The inhibition in [2] was determined as 49%; in assay [4], 43%; in assay [5] it was 30%; in assay [6], 38%; in assay [7], 22%.

With `Cc1cc(O)c(C(C)C)cc1-c1cc(-c2cccs2)c(C#N)c(=O)[nH]1`, the zone of inhibition at 100 ppm in [8] amounted to 11 mm; in assay [9] it was 10 mm; in assay [1] it was 14 mm; in assay [3], 13 mm. The inhibition stood at 68% in assay [2]; 63% in assay [4]; 41% in assay [5]; 54.3% in assay [6]; 26% in assay [7].

Consider `OC(Cn1cncn1)(Cn1cncn1)c1ccc(F)cc1F` [FLUCONAZOLE], for which the zone of inhibition at 100 µg/mL is 17 mm in [10] and 16 mm in assay [11].

As for `Cc1cc(O)c(C(C)C)cc1-c1cc(-c2ccccc2[N+](=O)[O-])c(C#N)c(=O)[nH]1`, the zone of inhibition at 100 ppm in assay [8] came out at 11 mm; in [9], 12 mm; in assay [1] it was 13 mm; in [3], 14 mm. Besides, the inhibition worked out at 37.5% in [2]; 35% in assay [4]; 25.5% in [5]; 31% in assay [6]; 20% in assay [7].

As for `COc1cc(-c2cc(-c3cc(C(C)C)c(O)cc3C)[nH]c(=O)c2C#N)ccc1O`, the zone of inhibition at 100 ppm in [8] was 11 mm; in assay [9], 11 mm; in [1], 15 mm; in assay [3], 14 mm. In addition, the inhibition was 44% in [2]; 42% in assay [4]; 32% in assay [5]; 37.5% in assay [6]; 26% in [7].

In the case of `Cc1onc(-c2ccccc2Cl)c1C(=O)N[C@@H]1C(=O)N2[C@@H]1SC(C)(C)[C@@H]2C(=O)O` [CLOXACILLIN], the figures for the zone of inhibition at 100 µg/mL in [12] and in [13] were 18 mm and 17 mm, respectively.

In the case of `COc1ccc(-c2cc(-c3cc(C(C)C)c(O)cc3C)[nH]c(=O)c2C#N)c(OC)c1`, the zone of inhibition at 100 ppm is 10 mm in [8], 10 mm in [9], 14 mm in [1] and 13 mm in assay [3]. Also, the inhibition came out at 58% in assay [2]; 55% in [4]; 37.5% in assay [5]; 48.5% in assay [6]; 27% in [7].

`Cc1cc(O)c(C(C)C)cc1-c1cc(-c2ccccc2)c(C#N)c(=O)[nH]1`: the zone of inhibition at 100 ppm in assay [8] was 9 mm; in [9] it was 9 mm; in [1], 11 mm; in assay [3] it was 10 mm. In addition, the inhibition is 41% in [2]; 58% in [4]; 29% in [5]; 34% in [6]; 22% in assay [7].

As to `Cc1cc(O)c(C(C)C)cc1-c1cc(-c2ccco2)c(C#N)c(=O)[nH]1`, the zone of inhibition at 100 ppm in assay [8] was determined as 9 mm; in assay [9], 10 mm; in assay [1], 13 mm; in assay [3], 12 mm. Further, the inhibition in [2] was found to be 70%; in assay [4], 64%; in assay [5], 42.5%; in [6], 55.2%; in assay [7] it was 26%.

With `Cc1ccc(C(C)C)c(O)c1` [THYMOL], the zone of inhibition at 100 ppm was determined as 7 mm in assay [8], 8 mm in assay [9], 9 mm in [1] and 8 mm in [3]. The inhibition in [2] amounted to 31%; in assay [4], 27.5%; in assay [5], 16%; in [6], 22.5%; in assay [7] it was 10%.

Turning to `COc1ccc(-c2cc(-c3cc(C(C)C)c(O)cc3C)[nH]c(=O)c2C#N)cc1OC`, the zone of inhibition at 100 ppm was 10 mm in assay [8], 9 mm in assay [9], 13 mm in [1] and 13 mm in assay [3]. Further, the inhibition in assay [2] was determined as 61%; in [4], 58%; in assay [5], 44%; in assay [6] it was 52%; in [7], 25%.

For the origin of these results see ChEMBL document CHEMBL3044545, “Synthesis and evaluation of antioxidant and antimicrobial properties of thymol containing pyridone moieties” (2012).
